In ChEMBL document CHEMBL3751815, “Sulfonamides incorporating heteropolycyclic scaffolds show potent inhibitory action against carbonic anhydrase isoforms I, II, IX and XII” (Bioorg Med Chem, 2016):

These compounds were tested against Carbonic anhydrase 9 (Homo sapiens, UniProt Q16790) (assay: Inhibition of recombinant human carbonic anhydrase 9 preincubated for 15 mins by stopped-flow CO2 hydration assay).

Ki	Compound
6.1 nM	NS(=O)(=O)c1ccc(-n2cc3c(n2)-c2ccc(Cl)cc2SC3)cc1
8.7 nM	NS(=O)(=O)c1ccc(Nc2ncc3c(n2)-c2ccc(Cl)cc2SC3)cc1
7.4 nM	COc1ccc2c(c1)SCc1cn(-c3ccc(S(N)(=O)=O)cc3)nc1-2
27.6 nM	NS(=O)(=O)c1ccc(Nc2ncc3c(n2)-c2cccnc2SC3)cc1
7 nM	NS(=O)(=O)c1ccc(Nc2ncc3c(n2)-c2ccccc2SC3)cc1
22.5 nM	COc1ccc2c(c1)SCc1cnc(Nc3ccc(S(N)(=O)=O)cc3)nc1-2

Continued, compound first:

Compound	Ki
Cc1ccc2c(c1)NCc1cn(-c3ccc(S(N)(=O)=O)cc3)nc1-2	7.7 nM
COc1ccc2c(c1)SCc1ccc(N(C)CC(=O)O)cc1-2	40.8 nM
NS(=O)(=O)c1ccc(-n2cc3c(n2)-c2ccccc2NC3)cc1	6.3 nM
COc1ccc2c(c1)SCc1ccc(NCC(=O)O)cc1-2	54.1 nM
Cc1ccc2c(n1)SCc1ccc(N(C)CC(=O)O)cc1-2	92.7 nM
CN(CC(=O)O)c1ccc2c(c1)-c1cccnc1SC2	67.8 nM
